# Marks after values point to notes of the source that are not given here.
# Key:
# [1] = system: HCT-116 human colon cancer xenografts; assay: Tumor growth inhibition of HCT-116 human colon cancer xenografts in nude mice; assay type: in vivo, Balb/c nude mice; settings: for Relative tumor proliferation rate (T/C %) / Relative tumor volume (RTV) / Tumor growth inhibition rate (TGI %) / Tumor volume of HCT-116 human colon cancer xenografts: single IP injection (QD×1), D1 and D2 400 mg/kg, D3 350 mg/kg, D4 300 mg/kg; for Tumor volume of HCT-116 human colon cancer xenografts: Mean±SEM
# Protocol: 2. Preparation of the test substance was performed by dissolving the test substance using the following solvents:
# 3. Animal experiments were performed. […] Animals were numbered using their tail number.
# 4.1 Tumor cells were human HCT-116 colon cancer cells purchased from the Institute of Cell Biology, Chinese Academy of Sciences (Beijing, China). F-12 medium (containing 10% FBS) was used to culture cells in a carbon dioxide incubator at about 37° C., saturated humidity, under 5% CO2 and 95% air. Before inoculation, cells in logarithmic growth phase were collected. After digested by 0.25% trypsin, the cells were washed with PBS once. The cells were resuspended with serum-free medium and counted. Serum-free medium were used for cell resuspension, until the cell concentration was adjusted to about 3×10^7 cell/mL.
# 4.2 Animal inoculation and grouping were performed.
# The diameters (D) of the tumor nodules were measured three times a week with a circle sizer ruler. In addition, the following formula was applied to calculate the volume of the tumor nodules (V): V=[…](D/2)^3 generally for a spherical shape. Evaluation indexes of antitumor activity were tumor growth inhibition rate TGI (%) and relative tumor proliferation rate T/C (%).
# The calculation formula of TGI was: TGI (%)=(Vcontrol−VTreatment)/Vcontrol)×100%. The relative tumor volume (RTV) was calculated by: RTV=Vt/V0, where V0 is the tumor volume at the time of group administration, and Vt is the tumor volume at the time of measurement.
# The mice were weighed 3 times every week.
# 4.5 Data and statistical analysis were provided.
# [2] = Body weight / toxicity of a single intraperitoneal injection in HCT-116 colon tumor-bearing nude mice; settings: D3 350 mg/kg, D4 300 mg/kg; for Average rate of weight change of the animals / Average weight of the animals: single IP injection (QD×1), D1 and D2 400 mg/kg; for Average weight of the animals: Mean±SEM
# Protocol: Corresponding test substance was weighed and put into a 5 mL glass tube. The test substance was dissolved in ethanol under the stirring by a 5 mm magnetic stirrer. After a complete dissolution, Cremophor EL was added with continuous stirring. Immediately prior to the user of the test substance, the labeled amount of physiological saline was added and stirred.
# Animal experiments were performed. The animals were female Balb/c nude mice at specific pathogen free (SPF) level and were supplied from Shanghai Sippr/BK Lab Animal Ltd. (Shanghai, China). […] These animals were at the age of about 7 weeks to about 9 weeks at the beginning of the experiments and had the weight of about 18 grams to about 22 grams at the beginning of the experiment. The animals had acclimatization duration of about 5 days to about 7 days. Animals were numbered using their tail number. The animal room was maintained at about 23±2° C., 40%-70% humidity, with alternating light and dark every 12 hours.
# 4.2 Animal inoculation and grouping were performed. Under aseptic conditions, each nude mice was injected with 0.1 mL cell suspension into the right hind leg subcutaneously (3×10^6 cell/mouse). When the size of the tumor grew to have a volume of about 60-150 mm^3, nude mice with a similar tumor size and a desirable shape (e.g., with substantially same shape such as a substantially spherical shape, without having irregular shapes or multiple tumors grouped together) were selected and grouped. In the experiment, there were six mice in each group.
# The mice in control group were injected with a mixed solution including ethanol, Cremophor EL and normal saline at a ratio of 5:5:90.
# 4.4 Clinical symptoms were provided. All clinical symptoms of each animal were recorded at the beginning of the experiments and during the experiments. The observation was performed at the same time every day.
# After administration of the test substance, when the weight reduction was >20%, when the animal was dying, or when the tumor volume exceeds about 2800 mm^3, the animal were euthanized by applying CO2. The tumor was separated and weighed, an autopsy was performed, and visual inspection was conducted and recorded on whether there were pathological changes in the organs.
# [3] = D1 400 mg/kg Day 7, D2 400 mg/kg Day 9, D3 350 mg/kg Day 11, D4 300 mg/kg Day 11, single IP
smiles,measurement,setting,value
"CCCCOC(=O)Nc1ccn(C2OC(COC(=O)CCC(=O)OC[C@H]3O[C@@H](n4ccc(NC(=O)OCc5ccccc5)nc4=O)C(F)(F)[C@@H]3O)C(O)C2(F)F)c(=O)n1 (stereo in doubt) [Compound D4, 1-O-(4-N-(Benzyloxycarbonyl)-gemcitabine)-4-O-(4-N-(n-Butoxycarbonyl)-gemcitabine)-succinate]","Relative tumor proliferation rate, minimum",[1]; [3],25.94%
same,"Tumor inhibition rate, maximum",[1]; [3],97.32%
same,Relative tumor proliferation rate (T/C %),[1]; Day 0,0.00%
same,Relative tumor volume (RTV),[1]; Day 0,1.00
same,Tumor growth inhibition rate (TGI %),[1]; Day 0,0.00%
same,Tumor volume of HCT-116 human colon cancer xenografts,[1]; Day 0,44.09 ± 5.99** mm^3
same,Relative tumor proliferation rate (T/C %),[1]; Day 1,77.07%
same,Relative tumor volume (RTV),[1]; Day 1,1.12 ± 0.12
same,Tumor growth inhibition rate (TGI %),[1]; Day 1,71.17%
same,Tumor volume of HCT-116 human colon cancer xenografts,[1]; Day 1,52.03 ± 12.91** mm^3
same,Relative tumor proliferation rate (T/C %),[1]; Day 2,66.48%
same,Relative tumor volume (RTV),[1]; Day 2,1.12 ± 0.12
same,Tumor growth inhibition rate (TGI %),[1]; Day 2,76.55%
same,Tumor volume of HCT-116 human colon cancer xenografts,[1]; Day 2,52.03 ± 12.91** mm^3
same,Relative tumor proliferation rate (T/C %),[1]; Day 4,43.31%
same,Relative tumor volume (RTV),[1]; Day 4,0.79 ± 0.11
same,Tumor growth inhibition rate (TGI %),[1]; Day 4,87.42%
same,Tumor volume of HCT-116 human colon cancer xenografts,[1]; Day 4,37.37 ± 10.46** mm^3
same,Relative tumor proliferation rate (T/C %),[1]; Day 7,31.86%
same,Relative tumor volume (RTV),[1]; Day 7,0.55 ± 0.10
same,Tumor growth inhibition rate (TGI %),[1]; Day 7,94.11%
same,Tumor volume of HCT-116 human colon cancer xenografts,[1]; Day 7,25.46 ± 8.17** mm^3
same,Relative tumor proliferation rate (T/C %),[1]; Day 9,30.55%
same,Relative tumor volume (RTV),[1]; Day 9,0.55 ± 0.12
same,Tumor growth inhibition rate (TGI %),[1]; Day 9,96.19%
same,Tumor volume of HCT-116 human colon cancer xenografts,[1]; Day 9,22.50 ± 5.31** mm^3
same,Relative tumor proliferation rate (T/C %),[1]; Day 11,25.94%
same,Relative tumor volume (RTV),[1]; Day 11,0.69 ± 0.20
same,Tumor growth inhibition rate (TGI %),[1]; Day 11,97.32%
same,Tumor volume of HCT-116 human colon cancer xenografts,[1]; Day 11,26.19 ± 5.79** mm^3
same,Relative tumor proliferation rate (T/C %),[1]; Day 14,32.83%
same,Relative tumor volume (RTV),[1]; Day 14,1.81 ± 0.54
same,Tumor growth inhibition rate (TGI %),[1]; Day 14,95.12%
same,Tumor volume of HCT-116 human colon cancer xenografts,[1]; Day 14,70.28 ± 18.37** mm^3
same,Relative tumor proliferation rate (T/C %),[1]; Day 16,37.96%
same,Relative tumor volume (RTV),[1]; Day 16,3.29 ± 0.82
same,Tumor growth inhibition rate (TGI %),[1]; Day 16,92.12%
same,Tumor volume of HCT-116 human colon cancer xenografts,[1]; Day 16,142.77 ± 49.34** mm^3
same,Relative tumor proliferation rate (T/C %),[1]; Day 18,26.76%
same,Relative tumor volume (RTV),[1]; Day 18,5.11 ± 1.12
same,Tumor growth inhibition rate (TGI %),[1]; Day 18,88.56%
same,Tumor volume of HCT-116 human colon cancer xenografts,[1]; Day 18,228.58 ± 76.92** mm^3
same,Relative tumor proliferation rate (T/C %),[1]; Day 21,37.28%
same,Relative tumor volume (RTV),[1]; Day 21,8.73 ± 1.39
same,Tumor growth inhibition rate (TGI %),[1]; Day 21,84.66%
same,Tumor volume of HCT-116 human colon cancer xenografts,[1]; Day 21,375.06 ± 86.27 mm^3
same,Relative tumor proliferation rate (T/C %),[1]; Day 23,50.04%
same,Relative tumor volume (RTV),[1]; Day 23,9.89 ± 1.30
same,Tumor growth inhibition rate (TGI %),[1]; Day 23,82.19%
same,Tumor volume of HCT-116 human colon cancer xenografts,[1]; Day 23,420.73 ± 76.08 mm^3
same,Relative tumor proliferation rate (T/C %),[1]; Day 25,53.68%
same,Relative tumor volume (RTV),[1]; Day 25,11.61 ± 1.51
same,Tumor growth inhibition rate (TGI %),[1]; Day 25,80.98%
same,Tumor volume of HCT-116 human colon cancer xenografts,[1]; Day 25,491.29 ± 83.78 mm^3
same,Relative tumor proliferation rate (T/C %),[1]; Day 28,69.72%
same,Relative tumor volume (RTV),[1]; Day 28,14.73 ± 2.18
same,Tumor growth inhibition rate (TGI %),[1]; Day 28,77.39%
same,Tumor volume of HCT-116 human colon cancer xenografts,[1]; Day 28,608.08 ± 85.37 mm^3
same,Relative tumor proliferation rate (T/C %),[1]; Day 30,76.91%
same,Relative tumor volume (RTV),[1]; Day 30,19.08 ± 2.98
same,Tumor growth inhibition rate (TGI %),[1]; Day 30,72.14%
same,Tumor volume of HCT-116 human colon cancer xenografts,[1]; Day 30,781.78 ± 105.33 mm^3
same,Inhibition of growth of HCT-116 human colon cancer xenografts (in words),"[1]; single IP injection, 300-400 mg/kg",higher tumor inhibition rates
same,Average rate of weight change of the animals,[2]; Day 0,0.00%
same,Average weight of the animals,[2]; Day 0,20.15 ± 0.29 g
same,Average rate of weight change of the animals,[2]; Day 1,−1.17 ± 1.27%
same,Average weight of the animals,[2]; Day 1,19.90 ± 0.19 g
same,Average rate of weight change of the animals,[2]; Day 2,−8.18 ± 1.56 %
same,Average weight of the animals,[2]; Day 2,18.48 ± 0.2 g
same,Average rate of weight change of the animals,[2]; Day 4,−5.33 ± 1.78%
same,Average weight of the animals,[2]; Day 4,19.07 ± 0.36 g
same,Average rate of weight change of the animals,[2]; Day 7,−1.43 ± 1.92%
same,Average weight of the animals,[2]; Day 7,19.85 ± 0.38 g
same,Average rate of weight change of the animals,[2]; Day 9,2.91 ± 0.55 %
same,Average weight of the animals,[2]; Day 9,20.73 ± 0.29 g
same,Average rate of weight change of the animals,[2]; Day 11,4.47 ± 0.52 %
same,Average weight of the animals,[2]; Day 11,21.05 ± 0.31 g
same,Average rate of weight change of the animals,[2]; Day 14,3.72 ± 0.73 %
same,Average weight of the animals,[2]; Day 14,20.90 ± 0.34 g
same,Average rate of weight change of the animals,[2]; Day 16,6.62 ± 0.79 %
same,Average weight of the animals,[2]; Day 16,21.48 ± 0.34 g
same,Average rate of weight change of the animals,[2]; Day 18,8.99 ± 1.38 %
same,Average weight of the animals,[2]; Day 18,21.95 ± 0.27 g
same,Average rate of weight change of the animals,[2]; Day 21,7.41 ± 1.37 %
same,Average weight of the animals,[2]; Day 21,21.63 ± 0.30 g
same,Average rate of weight change of the animals,[2]; Day 23,9.37 ± 1.82 %
same,Average weight of the animals,[2]; Day 23,22.03 ± 0.43 g
same,Average rate of weight change of the animals,[2]; Day 25,10.69 ± 2.14 %
same,Average weight of the animals,[2]; Day 25,22.30 ± 0.49 g
same,Average rate of weight change of the animals,[2]; Day 28,8.62 ± 2.68%
same,Average weight of the animals,[2]; Day 28,21.88 ± 0.59 g
same,Average rate of weight change of the animals,[2]; Day 30,9.36 ± 2.21%
same,Average weight of the animals,[2]; Day 30,22.03 ± 0.53 g
same,Toxicity in tumor-bearing mice (in words),"[2]; single IP injection, D2 400 mg/kg, judged from body weight versus control",no toxicity

# Reference: patent US10351586B2, “Cytidine derivative dimers and applications thereof” (CHANGZHOU FANGYUAN PHARMACEUTICAL CO., LTD, priority 2014, dated 2019)
